Source: US20240254119A1 (THIRD HARMONIC BIO, INC., priority 2022, published 2024)

Tests used:
[1] = tested on: KIT phosphorylation in M-07e cells; assay: Cell-based KIT phosphorylation in M-07e cells by pKIT ELISA; parameters: species or system human; conditions: SCF stimulation
Method in brief: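 Serum-starved M-07e cells (1 × 10^6/mL, overnight) were treated with compounds (8-point 3-fold series from 1 uM) for 2 h at 37 °C, then stimulated with 100 ng/mL SCF for 5 min. Lysate phospho-KIT was captured on anti-phospho-CD117 plates, detected with anti-pY-HRP, and read at 450 nm against a pc-KIT standard curve.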

Caco-2 cells = assay: Caco-2 permeability assay; type: in vitro ADME; conditions: for Caco-2: Papp A-B: Caco-2, apical to basolateral
Description: Exemplary compounds were tested for cell permeability in Caco-2, MDCKII-MDR1 and MDCKII-BCRP cell lines with efflux transporter engagement inferred from the efflux ratios determined. Procedures and results are described below. […] This feature of certain compounds is in part due to efflux transporter engagement. See, for instance, exemplary such compounds included in data tables below.
The transport buffer in the study was HBSS with 10.0 mM HEPES at pH 7.40±0.05. Test compound was tested at 2.00 μM bi-directionally in duplicate. Digoxin was tested at 10.0 μM bi-directionally in duplicate, while nadolol and metoprolol were tested at 2.00 μM in A to B direction in duplicate. Final DMSO concentration was adjusted to less than 1%. The plate was incubated for 2 hours in CO2 incubator at 37±1° C., with 5% CO2 at saturated humidity without shaking. And all samples after mixed with acetonitrile containing internal standard were centrifuged at 3200×g for 10 min. For nadolol and metoprolol, 200 μL supernatant solution was diluted with 600 μL ultra-pure water for LC-MS/MS analysis. For digoxin and test compounds, 200 μL supernatant solution was diluted with 200 μL ultra-pure water for LC-MS/MS analysis. Concentrations of test and control compounds in starting solution, donor solution, and receiver solution were quantified by LC-MS/MS methodologies, using peak area ratio of analyte/internal standard.
After transport assay, lucifer yellow rejection assay was applied to determine the Caco-2 cell monolayer integrity.
[…] And permeation of lucifer yellow through the monolayer was measured to evaluate the cellular integrity.
The apparent permeability coefficient Papp (cm/s) was calculated using the equation: Papp=(dCr/dt)×Vr/(A×C0), where dCr/dt is the cumulative concentration of compound in the receiver chamber as a function of time (μM/s); Vr is the solution volume in the receiver chamber (0.075 mL on the apical side, 0.25 mL on the basolateral side); A is the surface area for the transport, i.e. 0.0804 cm^2 for the area of the monolayer; C0 is the initial concentration in the donor chamber (μM).
The efflux ratio was calculated using the equation: Efflux Ratio=Papp (BA)/Papp(AB).
Percent recovery was calculated using the equation: % Solution Recovery=100×[(Vr×Cr)+(Vd×Cd)]/(Vd×C0), where Vd is the volume in the donor chambers (0.075 mL on the apical side, 0.25 mL on the basolateral side); Cd and Cr are the final concentrations of transport compound in donor and receiver chambers, respectively.

SMILES: Cc1ccc(-c2noc([C@H]3CC(F)(F)CN3)n2)cc1NC(=O)c1cnc2ccccn12 [Compound I-359]
- IC50 [1]: 50 to 500 nM
- Caco-2: Efflux Ratio (Caco-2 cells): 1.19
- Caco-2: Papp A-B (Caco-2 cells): 9.88 10^−6 cm/s

SMILES: Cc1nc(-c2ccc(Cl)c(NC(=O)c3cnc4ccccn34)c2)no1 [Compound I-172]
- IC50 [1]: 500 to 5000 nM
- Caco-2: Efflux Ratio (Caco-2 cells): 0.49
- Caco-2: Papp A-B (Caco-2 cells): 12.9 10^−6 cm/s

SMILES: COC(=O)N1CC(c2nc(-c3ccc(C)c(NC(=O)c4cnn5ccc(Br)cc45)c3)no2)C1 [Compound I-280]
- IC50 [1]: ≤ 50 nM
- Caco-2: Efflux Ratio (Caco-2 cells): 0.86
- Caco-2: Papp A-B (Caco-2 cells): 14 10^−6 cm/s

SMILES: Cc1ccc(-c2noc(C3CC(C)(F)C3)n2)cc1NC(=O)c1cnc2ccccn12 (stereo not drawn) [Compound I-387]
- IC50 [1]: ≤ 50 nM
- Caco-2: Efflux Ratio (Caco-2 cells): 0.77
- Caco-2: Papp A-B (Caco-2 cells): 14.5 10^−6 cm/s

SMILES: Cc1ccc(-c2noc([C@H](C)O)n2)cc1NC(=O)c1cnc2ccccn12 [Compound I-271]
- IC50 [1]: ≤ 50 nM
- Caco-2: Efflux Ratio (Caco-2 cells): 2.93
- Caco-2: Papp A-B (Caco-2 cells): 6.26 10^−6 cm/s

SMILES: Cc1ccc(-c2noc([C@H]3C[C@@H]3F)n2)cc1NC(=O)c1cnc2cc(OC(C)C)ccn12 [Compound I-88]
- IC50 [1]: ≤ 50 nM
- Caco-2: Efflux Ratio (Caco-2 cells): 0.79
- Caco-2: Papp A-B (Caco-2 cells): 6.24 10^−6 cm/s

SMILES: COCCOCc1ccn2c(C(=O)Nc3cc(-c4noc([C@H]5C[C@@H]5F)n4)ccc3C)cnc2c1 [Compound I-84]
- IC50 [1]: ≤ 50 nM
- Caco-2: Efflux Ratio (Caco-2 cells): 1.8
- Caco-2: Papp A-B (Caco-2 cells): 11.8 10^−6 cm/s

SMILES: Cc1ccc(-c2noc(CCO)n2)cc1NC(=O)c1cnc2ccccn12 [Compound I-306]
- IC50 [1]: ≤ 50 nM
- Caco-2: Efflux Ratio (Caco-2 cells): 3.66
- Caco-2: Papp A-B (Caco-2 cells): 7.03 10^−6 cm/s

SMILES: COC(=O)N1CC(c2nc(-c3ccc(C(F)F)c(NC(=O)c4cnc5ccccn45)c3)no2)C1 [Compound I-225]
- IC50 [1]: ≤ 50 nM
- Caco-2: Efflux Ratio (Caco-2 cells): 1.37
- Caco-2: Papp A-B (Caco-2 cells): 9.62 10^−6 cm/s

SMILES: Cc1ccc(-c2noc(CC(C)(C)O)n2)cc1NC(=O)c1cnc2ccccn12 [Compound I-336]
- IC50 [1]: ≤ 50 nM
- Caco-2: Efflux Ratio (Caco-2 cells): 2.62
- Caco-2: Papp A-B (Caco-2 cells): 9.39 10^−6 cm/s

SMILES: Cc1ccc(-c2noc(C3CCC3F)n2)cc1NC(=O)c1cnc2ccccn12 (racemic) [Compound I-376]
- IC50 [1]: ≤ 50 nM
- Caco-2: Efflux Ratio (Caco-2 cells): 0.85
- Caco-2: Papp A-B (Caco-2 cells): 19.5 10^−6 cm/s

SMILES: Cc1nc(-c2ccc(C)c(NC(=O)c3cnc4ccccn34)c2)no1 [Compound I-360]
- IC50 [1]: ≤ 50 nM
- Caco-2: Efflux Ratio (Caco-2 cells): 0.36
- Caco-2: Papp A-B (Caco-2 cells): 12.7 10^−6 cm/s

SMILES: O=C(Nc1cc(-c2noc([C@H]3C[C@@H]3F)n2)ccc1Cl)c1cnc2ccccn12 [Compound I-341]
- IC50 [1]: 50 to 500 nM
- Caco-2: Efflux Ratio (Caco-2 cells): 0.56
- Caco-2: Papp A-B (Caco-2 cells): 16.2 10^−6 cm/s
